Test results: patent US7667031B2, “Nucleic acid base pair” (Japan Science and Technology Agency, priority 1999, dated 2010)
Where “and” joins values, the source holds several entries; their conditions need not be identical. Equal values may be shown once.

Experiments:
Klenow fragment (exo+) = molecular target: T1, Klenow fragment (exo+) (Escherichia coli, UniProt P00582); assay: Single nucleotide insertion reaction using Klenow fragment (exo+); format: biochemical, E. coli; conditions: 3 minutes; for rate of incorporation on dx2: template N = X2, 37° C.
T1 construct: Klenow fragment, which is deleted 5′-exonuclease from DNA polymerase I; purchased TAKARA
Method: Using Klenow fragment (exo^+), incorporation of dYTP on dx2 in the template (refer to example 10).
In the template, a position indicated by N was bound with base X or base X2 (for experimental) or base A (for control), and incorporation experiments of various bases were conducted. Results are shown in FIG. 12, in which lanes 1 and 2 indicate control experiments for incorporation of cytosine (C) and thymine (T) on adenine (A).
A solution containing [5′-^32P] labeled primer DNA (20-mer, […]), template DNA (35-mer, […]) and 2× Klenow fragment buffer (TAKARA) were annealed at 95° C. for 3 minutes, 40° C. for 3 minutes and 4° C. for 7 minutes. A solution of equimolar amount of 40 mM dNTP and Klenow fragment (exo^+) (2 unit/ml, For Sequencing, TAKARA) were added thereto and incubated at 37° C. for 3 minutes. […] Products were analyzed by using Phosphoroimager plate.

Klenow fragment [1] = molecular target: T2, Klenow fragment (Escherichia coli, UniProt P00582); conditions: 17° C.
Method: Primer 2 without labeling and template 2 were annealed, and [α-^32P] TTP and various amounts of dYTP were added thereto to find out ratio of inhibition of incorporation of [α-^32P] TTP into X by dYTP was investigated. […] As a result, when dYTP was added almost equivalent level of [α-^32P] TTP, incorporation of [α-^32P]
Primer, template and 10× Klenow fragment buffer (TAKARA) 1 μl were added to 0.5 ml tube, and total volume was adjusted to 7 μl, and annealed at 95° C. for 3 minutes, at 40° C. for 3 minutes and at 4° C. for 7 minutes. [α-^32P] TTP or [α-^32P] dCTP and dYTP were added to final concentration for each level, and Klenow fragment (1 unit/ml, For Sequencing, TAKARA) 2 μl was added, adjusted to total volume to 10 μl and incubated for the fixed time at 17° C. The reaction was terminated by adding 10 M urea BPB dye 5 μl kept at 75° C. for 5 minutes, and electrophoresed with 20% polyacrylamide gel with 7M urea gel electrophoresis. The result was analyzed using imaging plates (Phosphoroimager analysis).

T7 RNA polymerase [2] = molecular target: T3, T7 RNA polymerase (Escherichia phage T7, UniProt P00573); assay: Transcription by T7 RNA polymerase in presence of rNTP, RNase T2 digestion, 2-dimension TLC (templates 1 and 3); format: biochemical; conditions: for Template 1 (N = A) Measured Value / Template 3 (N = X) Measured Value: rATP, rGTP, rCTP, UTP 2 mM, rYTP 1 mM, nucleotide composition by 2-dimension TLC
Method: Transcription reaction in the presence of rNTP was conducted. […] ATP under the condition of rATP 2 mM, rGTP 2 mM, rCTP 2 mM, UTP 2 mM, and rYTP 1 mM, then generated full length of RNA was digested completely by RNase T2, nucleotide labeled at 3′-terminal was analyzed by 2-dimension TLC. Outline of this experiment is shown as follows.
Reaction was performed as same as in example 8. The generated RNA was isolated by gel electrophoresis. RNA was digested by 0.75 units RNase T2. Each nucleotide was separated using 2-dimension TLC and each ratio was calculated.

T7 RNA polymerase [3] = molecular target: T3, T7 RNA polymerase; assay: Transcription by T7 RNA polymerase, gel electrophoresis of generated RNA; format: biochemical; conditions: for incorporation into the complementary strand of A in transcription (FIG. 10): template 1 (N=A); for incorporation in transcription opposite G (FIG. 10): template 2 (N=G); for incorporation to X in transcription (FIG. 10): template 3 (N=X)
Method: Similarly, a transcription reaction by RNA polymerase using DNA containing X as template was examined. Using template 1-3, promoter region on this strand was duplicated, and the transcription reaction was examined using T7 RNA polymerase by adding [α-^32P] ATP.
Template DNA 1 μM, in which promoter region has duplicated strands, and T7 RNA polymerase 2.5 units were added to a solution containing 2 mM rNTP, [α-^32P] […] The product was analyzed.

Klenow fragment [4] = molecular target: T2, Klenow fragment; assay: Primer extension reaction by Klenow fragment; format: biochemical, E. coli; set-up: Klenow fragment, which is deleted 5′-exonuclease from DNA polymerase I; purchased TAKARA; conditions: 17° C.; for incorporation to the complementary strand X (primer extension, FIG. 6): template 3 1 μM
Description: In order to examine formation of selective novel nucleic acid base pair by utilizing steric hindrance in the base pair X-Y, primer extension method of DNA and transcriptional reaction synthesizing RNA from DNA were applied. The primer extension method includes annealing template DNA oligomer with a primer oligomer, and adding DNA polymerase and 2′-deoxynucleotide-5′-triphosphate (dNTP) to extend complementary sequence of the template at 3′-terminal of the primer. Klenow fragment, which is deleted 5′-exonuclease from DNA polymerase I, one of DNA polymerase originated from E. coli, and T7 RNA polymerase, RNA polymerase originated from T7 phage, were herein used. Both enzymes are commonly used at present.
5′-terminal of the primer was labeled with ^32P using T4 polynucleotide kinase and […]. Primer labeled with ^32P (0.5 μM) and template 1 and 3 (1 μM) and various dNTP (150 μM), wherein N means base, were used for primer extension by Klenow fragment (0.2 unit/μl) at 17° C. for 30 minutes.
The thus obtained product was electrophoresed using 20% polyacrylamide 7M urea gel and analyzed by using imaging plate (Phosphoroimager analysis). In FIG. 6, left five, i.e. AG, AGC, AGT, AGY and AGCT, indicates cases using template 1, and right five indicates cases using template 3.
In order to search effect of incorporation of Y, C and T into the complementary strand of X, when two X are presented on the template, ^32P labeled primer 3 at 5′-terminal and template 4, 5, 6, 7, 8 and 9 were used for primer extension method.
5′-^32P labeled primer, template and 10× Klenow fragment buffer (TAKARA) 1 μl were added to the 0.5 ml tube, adjusted total volume to 7 μl, and annealed at 95° C. for 3 minutes, at 40° C. for 3 minutes and at 4° C. for 7 minutes. dNTP 1 μl, Klenow fragment (1 unit/ml, For Sequencing, TAKARA) 2 μl were added, adjusted to total volume to 10 μl and incubated for the fixed time at 17° C. The reaction was terminated by adding 10 M urea BPB dye 5 μl, heated at 75° C. for 5 minutes, and electrophoresed with 20% polyacrylamide gel with 7M urea gel electrophoresis. The result was analyzed using imaging plates (Phosphoroimager analysis). Single nucleotide insertion reaction is shown in FIG. 7 and primer extension reaction is shown in FIG. 6 and FIG. 9, respectively.

Klenow fragment [5] = molecular target: T2, Klenow fragment; assay: Single nucleotide insertion reaction by Klenow fragment; format: biochemical, E. coli; set-up: Klenow fragment, which is deleted 5′-exonuclease from DNA polymerase I; purchased TAKARA; conditions: primer 2 1 μM, only one dNTP 159 μM, 17° C., 30 minutes; for incorporated into complementary strand of X: template 3 2 μM
Method: For quantitative analysis of the incorporation, same experiments were conducted by adding only DNTP (159 μM) using primer 2 (1 μM) labeled with p32 at 5′-terminal and template 1, 2 and 3 (2 μM).
The result was analyzed using imaging plates (Phosphoroimager analysis). Single nucleotide insertion reaction is shown in FIG. 7 and primer extension reaction is shown in FIG. 6 and FIG. 9, respectively.

[6] = primer 1 0.5 μM, dNTP 150 μM, 30 minutes

T1 sequence (P00582 324-928): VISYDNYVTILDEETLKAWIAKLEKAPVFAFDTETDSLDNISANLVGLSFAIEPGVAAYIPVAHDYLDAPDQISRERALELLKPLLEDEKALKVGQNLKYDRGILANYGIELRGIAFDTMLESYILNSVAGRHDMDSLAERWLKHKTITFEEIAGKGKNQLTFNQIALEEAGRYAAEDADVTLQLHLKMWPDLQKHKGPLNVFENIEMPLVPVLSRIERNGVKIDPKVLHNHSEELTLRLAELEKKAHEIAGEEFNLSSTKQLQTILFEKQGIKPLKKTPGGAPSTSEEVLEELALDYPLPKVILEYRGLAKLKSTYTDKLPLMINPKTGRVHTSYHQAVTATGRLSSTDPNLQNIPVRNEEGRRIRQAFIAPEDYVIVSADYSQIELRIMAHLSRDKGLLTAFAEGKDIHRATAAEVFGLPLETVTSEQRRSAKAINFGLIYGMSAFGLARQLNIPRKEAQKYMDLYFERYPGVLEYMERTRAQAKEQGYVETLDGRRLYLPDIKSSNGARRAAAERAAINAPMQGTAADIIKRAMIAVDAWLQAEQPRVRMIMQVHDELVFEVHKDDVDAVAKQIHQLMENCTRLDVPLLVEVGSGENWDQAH
T2 sequence (P00582 324-928): as above
T3 sequence (P00573 whole entry): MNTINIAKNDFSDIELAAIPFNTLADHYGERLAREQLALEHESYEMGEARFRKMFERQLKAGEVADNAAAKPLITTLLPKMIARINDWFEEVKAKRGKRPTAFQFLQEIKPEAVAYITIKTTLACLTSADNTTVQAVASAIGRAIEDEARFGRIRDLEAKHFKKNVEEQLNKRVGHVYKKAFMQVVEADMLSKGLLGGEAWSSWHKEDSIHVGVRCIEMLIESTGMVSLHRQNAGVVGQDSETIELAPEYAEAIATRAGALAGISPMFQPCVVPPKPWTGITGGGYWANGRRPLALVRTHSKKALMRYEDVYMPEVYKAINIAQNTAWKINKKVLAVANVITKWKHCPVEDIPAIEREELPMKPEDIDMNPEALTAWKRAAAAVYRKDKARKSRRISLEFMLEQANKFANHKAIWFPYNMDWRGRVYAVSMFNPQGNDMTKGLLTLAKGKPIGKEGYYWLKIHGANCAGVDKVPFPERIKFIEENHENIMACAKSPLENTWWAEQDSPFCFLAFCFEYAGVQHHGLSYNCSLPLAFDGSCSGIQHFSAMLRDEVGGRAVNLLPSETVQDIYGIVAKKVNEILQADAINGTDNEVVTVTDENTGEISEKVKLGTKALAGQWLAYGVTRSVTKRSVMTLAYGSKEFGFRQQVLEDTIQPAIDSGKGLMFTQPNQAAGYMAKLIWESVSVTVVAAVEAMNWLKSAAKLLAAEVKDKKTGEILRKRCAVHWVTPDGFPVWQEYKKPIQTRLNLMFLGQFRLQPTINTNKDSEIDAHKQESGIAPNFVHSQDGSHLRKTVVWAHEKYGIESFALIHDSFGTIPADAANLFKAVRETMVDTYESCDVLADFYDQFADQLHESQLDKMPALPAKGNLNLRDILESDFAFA

## O=c1[nH]cccc1[C@H]1C[C@H](O)[C@@H](COP(=O)(O)OP(=O)(O)OP(=O)(O)O)O1 [dYTP, 3-(2′-deoxy-5′-O-triphosphoryl-β-D-ribofuranosyl) pyridine-2-one]
Klenow fragment (exo+)
  rate of incorporation on dx2: 40%
Klenow fragment (exo+); template N = X, 37° C.
  rate of incorporation on dx: 21%
Klenow fragment [1]; dYTP added at almost equivalent level of [α-32P] TTP, 30 minutes
  inhibition of incorporation of [α-32P] TTP into X by dYTP: 50%
Klenow fragment [1]; template 1, dYTP 0-1000 μM
  inhibition of incorporation of [α-32P] TTP into the complementary strand of A: did not inhibit
Klenow fragment [1]; template 2, dYTP 0-1000 μM
  inhibition of incorporation of [α-32P] CTP into the complementary strand of G: did not inhibit

## Nc1ccn([C@@H]2O[C@H](CO)[C@@H](OP(=O)(O)O)[C@H]2O)c(=O)n1 [Cp]
T7 RNA polymerase [2]
  Template 1 (N = A) Measured Value: 0.78
  Template 3 (N = X) Measured Value: 0.94

## O=c1cccc[nH]1 [Y, pyridine-2-one]
T7 RNA polymerase [3]
  incorporation into the complementary strand of A in transcription (FIG. 10): incorporated
  incorporation in transcription opposite G (FIG. 10): almost no production
  incorporation to X in transcription (FIG. 10): selective incorporation
T7 RNA polymerase [2]; template 1 (N=A)
  incorporation in transcription reaction in the presence of rNTP: no incorporation
T7 RNA polymerase [2]; template 3 (N=X)
  incorporation in transcription reaction in the presence of rNTP: almost selectively incorporated
Klenow fragment [4]; another base between two X on the template, primer 3, dNTP 150 μM, 60 minutes (FIG. 9)
  incorporation into the complementary strand of the second X in the two X: only Y was incorporated
Klenow fragment [4]; primer 1 0.5 μM, template 1 and 3 1 μM, dNTP 150 μM, 30 minutes
  incorporation into complementary strands (primer extension, FIG. 6): incorporated into complementary strands of A, G and X
Klenow fragment [5]; template 1 2 μM
  incorporated into complementary strand of A: 78%
Klenow fragment [5]; template 2 2 μM
  incorporated into complementary strand of G: 48%
Klenow fragment [5]
  incorporated into complementary strand of X: 42% and 41%

## O=c1ccn([C@@H]2O[C@H](CO)[C@@H](OP(=O)(O)O)[C@H]2O)c(=O)[nH]1 [Up]
T7 RNA polymerase [2]
  Template 1 (N = A) Measured Value: 0.98
  Template 3 (N = X) Measured Value: 0.08

## Nc1nc2c(ncn2[C@@H]2O[C@H](CO)[C@@H](OP(=O)(O)O)[C@H]2O)c(=O)[nH]1 [Gp]
T7 RNA polymerase [2]
  Template 1 (N = A) Measured Value: 4
  Template 3 (N = X) Measured Value: 4

## Nc1ccn([C@H]2C[C@H](O)[C@@H](COP(=O)(O)OP(=O)(O)OP(=O)(O)O)O2)c(=O)n1 [dCTP]
Klenow fragment (exo+)
  rate of incorporation on dx2: 22%

## Nc1ncnc2c1ncn2[C@@H]1O[C@H](CO)[C@@H](OP(=O)(O)O)[C@H]1O [Ap]
T7 RNA polymerase [2]
  Template 1 (N = A) Measured Value: 0.92
  Template 3 (N = X) Measured Value: 1.05

## Cc1c[nH]c(=O)[nH]c1=O [T, thymine]
Klenow fragment [4]; [6]
  incorporation to the complementary strand X (primer extension, FIG. 6): incorporated
Klenow fragment [5]
  incorporated into complementary strand of X: 13%

## Nc1cc[nH]c(=O)n1 [C, cytosine]
T7 RNA polymerase [3]
  incorporation in transcription opposite G (FIG. 10): only C was incorporated
Klenow fragment [4]; [6]
  incorporation to the complementary strand X (primer extension, FIG. 6): incorporated
Klenow fragment [5]
  incorporated into complementary strand of X: 9.5%

## O=c1cc[nH]c(=O)[nH]1 [U]
T7 RNA polymerase [3]
  incorporation into the complementary strand of A in transcription (FIG. 10): incorporated
  incorporation to X in transcription (FIG. 10): Trace amount
T7 RNA polymerase [2]; template 3 (N=X)
  incorporation in transcription reaction in the presence of rNTP: trace amount
